Test: Stability of non-aqueous mixtures of 1-(nitrosooxy)-propan-2-ol and 2-(nitrosooxy)-propan-1-ol in 1,2-propanediol, GC analysis
Type: physicochemical
Procedure: Three different concentrations of 1-(nitrosooxy)-propan-2-ol and 2-(nitrosooxy)-propan-1-ol in 1,2-propanediol were prepared and stored in both a refrigerator (5° C.) and freezer (−20° C.). Aliquots of each solution were taken periodically and analysed by GC to determine the concentration of 1-(nitrosooxy)-propan-2-ol and 2-(nitrosooxy)-propan-1-ol.
The results of the GC analysis are shown in the table below (column: Rxi-5Sil MS, 20 m×0.18 mm, […]; carrier: He; Inlet: 250° C., split ratio 100:1; constant flow: 1.0 mL/min; oven temperature profile: 40° C. (3 min), 10° C./min, 80° C. (0 min), 30° C./min, 250° C. (3 min); FID: 300° C., H2 flow 30 mL/min, air flow 400 mL/min, make-up flow (N2) 25 mL/min; internal standard: 1,1,1,3,5,5,5-heptamethyl trisiloxane): […]

[1] = Freezer (−20° C.), 10 days, Low conc. sample in 1,2-propanediol
[2] = Freezer (−20° C.), 10 days, Medium conc. sample in 1,2-propanediol
[3] = Freezer (−20° C.), 14 days, High conc. sample in 1,2-propanediol
[4] = Freezer (−20° C.), 27 days, Low conc. sample in 1,2-propanediol
[5] = Freezer (−20° C.), 27 days, Medium conc. sample in 1,2-propanediol
[6] = Freezer (−20° C.), 28 days, High conc. sample in 1,2-propanediol
[7] = Freezer (−20° C.), 56 days, High conc. sample in 1,2-propanediol
[8] = Freezer (−20° C.), 64 days, Low conc. sample in 1,2-propanediol
[9] = Freezer (−20° C.), 64 days, Medium conc. sample in 1,2-propanediol
[10] = Freezer (−20° C.), 84 days, High conc. sample in 1,2-propanediol
[11] = Freezer (−20° C.), 84 days, Low conc. sample in 1,2-propanediol
[12] = Freezer (−20° C.), 84 days, Medium conc. sample in 1,2-propanediol
[13] = Freezer (−20° C.), Start, High conc. sample in 1,2-propanediol
[14] = Freezer (−20° C.), Start, Low conc. sample in 1,2-propanediol
[15] = Freezer (−20° C.), Start, Medium conc. sample in 1,2-propanediol
[16] = Refrigerator (5° C.), 10 days, Low conc. sample in 1,2-propanediol
[17] = Refrigerator (5° C.), 10 days, Medium conc. sample in 1,2-propanediol
[18] = Refrigerator (5° C.), 14 days, High conc. sample in 1,2-propanediol
[19] = Refrigerator (5° C.), 27 days, Low conc. sample in 1,2-propanediol
[20] = Refrigerator (5° C.), 27 days, Medium conc. sample in 1,2-propanediol
[21] = Refrigerator (5° C.), 28 days, High conc. sample in 1,2-propanediol
[22] = Refrigerator (5° C.), 56 days, High conc. sample in 1,2-propanediol
[23] = Refrigerator (5° C.), 64 days, Low conc. sample in 1,2-propanediol
[24] = Refrigerator (5° C.), 64 days, Medium conc. sample in 1,2-propanediol
[25] = Refrigerator (5° C.), 84 days, High conc. sample in 1,2-propanediol
[26] = Refrigerator (5° C.), 84 days, Low conc. sample in 1,2-propanediol
[27] = Refrigerator (5° C.), 84 days, Medium conc. sample in 1,2-propanediol
[28] = Refrigerator (5° C.), Start, High conc. sample in 1,2-propanediol
[29] = Refrigerator (5° C.), Start, Low conc. sample in 1,2-propanediol
[30] = Refrigerator (5° C.), Start, Medium conc. sample in 1,2-propanediol

| Compound | Concentration (% w/w) [1] | Concentration (% w/w) [2] | Concentration (% w/w) [3] | Concentration (% w/w) [4] | Concentration (% w/w) [5] | Concentration (% w/w) [6] | Concentration (% w/w) [7] | Concentration (% w/w) [8] | Concentration (% w/w) [9] | Concentration (% w/w) [10] | Concentration (% w/w) [11] | Concentration (% w/w) [12] | Concentration (% w/w) [13] | Concentration (% w/w) [14] | Concentration (% w/w) [15] | Concentration (% w/w) [16] | Concentration (% w/w) [17] | Concentration (% w/w) [18] | Concentration (% w/w) [19] | Concentration (% w/w) [20] | other results |
| --- | --- | --- | --- | --- | --- | --- | --- | --- | --- | --- | --- | --- | --- | --- | --- | --- | --- | --- | --- | --- | --- |
| CC(O)CON=O (stereo not drawn) [1-Nitrite, 1-(nitrosooxy)-propan-2-ol] | 0.08 % w/w | 0.81 % w/w | 3.76 % w/w | 0.07 % w/w | 0.74 % w/w | 3.72 % w/w | 3.55 % w/w | 0.07 % w/w | 0.74 % w/w | 3.50 % w/w | 0.08 % w/w | 0.78 % w/w | 3.75 % w/w | 0.08 % w/w | 0.81 % w/w | 0.08 % w/w | 0.86 % w/w | 3.72 % w/w | 0.09 % w/w | 0.81 % w/w | Concentration (% w/w) [21]: 3.67 % w/w; Concentration (% w/w) [22]: 3.47 % w/w; Concentration (% w/w) [23]: 0.07 % w/w; Concentration (% w/w) [24]: 0.73 % w/w; Concentration (% w/w) [25]: 3.33 % w/w; Concentration (% w/w) [26]: 0.07 % w/w; Concentration (% w/w) [27]: 0.77 % w/w; Concentration (% w/w) [28]: 3.75 % w/w; Concentration (% w/w) [29]: 0.08 % w/w; Concentration (% w/w) [30]: 0.81 % w/w |
| CC(CO)ON=O (stereo not drawn) [2-Nitrite, 2-(nitrosooxy)-propan-1-ol] | 0.06 % w/w | 0.63 % w/w | 2.89 % w/w | 0.06 % w/w | 0.57 % w/w | 2.93 % w/w | 2.74 % w/w | 0.06 % w/w | 0.58 % w/w | 2.71 % w/w | 0.06 % w/w | 0.62 % w/w | 2.94 % w/w | 0.06 % w/w | 0.61 % w/w | 0.06 % w/w | 0.67 % w/w | 2.91 % w/w | 0.07 % w/w | 0.63 % w/w | Concentration (% w/w) [21]: 2.90 % w/w; Concentration (% w/w) [22]: 2.69 % w/w; Concentration (% w/w) [23]: 0.06 % w/w; Concentration (% w/w) [24]: 0.57 % w/w; Concentration (% w/w) [25]: 2.59 % w/w; Concentration (% w/w) [26]: 0.06 % w/w; Concentration (% w/w) [27]: 0.60 % w/w; Concentration (% w/w) [28]: 2.94 % w/w; Concentration (% w/w) [29]: 0.06 % w/w; Concentration (% w/w) [30]: 0.61 % w/w |
